“And” between values parts separate entries of the source, which are not always exact repeats. Equal entries are not always repeated.
Key:
[1] = Dynamic PET in anesthetized rhesus; type: in vivo; conditions: 370 MBq i.v. bolus, PET over 240 min, versus [18F][A] and 18F T807
Procedure: [^18F][A]-d2, [^18F][A] or ^18F T807 (see Chien et al., J. Alzheimers Dis, 38:171-84 (2014)) (370 MBq (10 mCi)) was intravenous bolus injected into an anesthetized rhesus, and dynamic PET data acquired over 240 minutes. […] Data was collected from the same animal but on different days for each probe.

[2] = Dynamic microPET imaging in mice; type: in vivo, mice (C57BL/6)
Procedure: MicroPET Imaging The PET imaging was performed on Inveon PET/CT scanner (Siemens Medical Solutions USA Inc.). Animals anesthetized with sevoflurane were placed head-first, prone position on the scanner bed and dynamic 45 min scans were initiated. Approximately 3.7 MBq of ^18F-radiolabeled tracer in isotonic solution (100-130 μL) was administered as 60 second intravenous infusion via the tail vein. Body temperature was measured by a rectal probe and maintained with warm air flow at 37° C. Full-body iterative image reconstructions were obtained using maximum a posteriori algorithm (MAP, hyperparameter β 0.05) and corrected for signal attenuation using the tissue density obtained from CT. Projections were created with PMOD 3.305 (PMOD Technologies, Ltd., Zurich, Switzerland) and used to obtain quantitative activity levels in each organ of interest using region-of-interest analysis.

[3] = test system: tau (NFTs) in human brain tissues; test: Autoradiography on postmortem human brain tissues; type: binding
Procedure: Autoradiography The tracer [^18F][A] or [^18F][A]-d2 was dissolved in PBS containing 5% DMSO and 5% ethanol at final concentration 40 μCi/mL. Then 0.5 ml of stock solution was transferred to a microscope slide with 5 μm thick freshly dried section of a tissue and incubated for 90 min at room temperature. The slides were washed by dipping into following solutions: PBS for 1 min, 70% ethanol 2 min, 30% ethanol 2 min and PBS 1 min. The samples were dried at room temperature for 30 min and exposed to phosphorimager plate for 20 h. The exposed plates were scanned at 25 μm resolution.
Autoradiographic evaluation of [^18F][A] and [^18F][A]-d2 was performed using brain tissues collected postmortem from human donors. […] The positive staining was found in grey matter of tissues containing high level of NFTs and high AD-amyloid characterized as Braak score 5. […] The NFT and Aβ-amyloid burden was measured by standard immunohistochemical methods.

[4] = Microsomal stability assay, human liver microsomes; type: in vitro ADME; conditions: radiolabeled, 45 min incubation, n=3
Procedure: Microsomal stability assays The tracer [^18F][A]-d2 or [^18F][A] was dissolved in potassium phosphate (Kpi) buffer (100 mM) at concentration 500-600 μCi/mL. The non-radioactive 7 and 10 were dissolved in Kpi buffer at 10 μM concentration. The reaction vessel was charged with human or mouse liver microsome suspension (12.5 μL, 20 mg/mL) followed by Kpi buffer (388 μL, 10 mM), NADPH (50 μL, 10 mM) and incubated at 37° C. for 5-10 min. A solution of the radioactive [^18F][A]-d2 or [^18F][A] (50 μL, […]) or non-radioactive 7 or […] (50 μL, 10 μM) were added to the reaction vessel and the mixture was incubated at 37° C. […] The supernatant was analyzed by LCMS (System E).

[5] = Microsomal stability assay, mouse liver microsomes; type: in vitro ADME; conditions: radiolabeled, 5 min, n=3
Procedure: Microsomal stability assays The tracer [^18F][A]-d2 or [^18F][A] was dissolved in potassium phosphate (Kpi) buffer (100 mM) at concentration 500-600 μCi/mL. The non-radioactive 7 and 10 were dissolved in Kpi buffer at 10 μM concentration. The reaction vessel was charged with human or mouse liver microsome suspension (12.5 μL, 20 mg/mL) followed by Kpi buffer (388 μL, 10 mM), NADPH (50 μL, 10 mM) and incubated at 37° C. for 5-10 min. A solution of the radioactive [^18F][A]-d2 or [^18F][A] (50 μL, 250-300 μCi) or non-radioactive 7 or 8 (50 μL, 10 μM) were added to the reaction vessel and the mixture was incubated at 37° C. Aliquots (50 μL) of the reaction mixture were taken at 5, 15 and 45 minutes post addition of the tested compound, mixed with ice-cold acetonitrile (100 μL) and centrifuged. The supernatant was analyzed by LCMS (System E).

[2H]C([2H])([18F])CC1CCN(c2ccn3c(n2)nc2ccccc23)CC1 [[^18F][A]-d2, 1,1-dideutero-2-(1-(benzo[4,5]imidazo[1,2-a]pyrimidine-2-yl)piperidin-4-yl)-1-[^18F]fluoroethane]
stability / skull uptake of free fluoride [1]: increased stability reflected by a reduction of skull uptake of free fluoride | reduction in bone uptake versus [18F][A] ([2]; in vivo PET): ~54% | uptake in liver and kidneys, comparison of the two tracers ([2]; n=6): indistinguishable | bone uptake ([2]; n=6, 30-45 min post tracer injection): 14.3±1.7 % ID/g | peak uptake in brain ([2]; n=6, i.v., dynamic PET): 7.4±2.2 % ID/g | staining of negative control tissues ([3]; high or moderate amyloid burden but no NFTs, Braak score 3 or 2): not positively stained | autoradiographic binding pattern ([3]; human brain tissues, positive staining in grey matter with high NFTs, Braak score 5): tau specific binding patterns | fraction attributed to parent compound [4]: 91.7±0.21% and 67.1±6.3% | amount of parent compound [5]: 2.0±0.3%

Reference: US12214058B2, “Imaging methods using deuterated compounds” (Genentech, Inc., priority 2014, dated 2025)
